Tests used:
[1] = system: histamine-induced spasms of guinea-pig ileum strips; test: Anti-histamine activity in vitro (guinea-pig ileum); format: cell-based; conditions: Table I-b; histamine 0.5 mg/liter, 5 minutes incubation, significant inhibition (50%) of contraction
Method: The histamine-(0.5 mg/liter) induced spasms are recorded Kymographically with an isotonic lever giving a 5-fold magnification.

[2] = system: histamine paw oedema in guinea pigs; test: Histamine paw oedema in guinea pigs; format: in vivo, guinea pig; conditions: Table I-b, 2 hours before s.p. histamine 50 μg, oedema below 10 units at 10 minutes
Method: Guinea pigs, weighing between 400 and 500 g, are sensitized to ovalbumin by subplantar (s.p.) injection of 0.05 ml of antiserum in the left hind paw. The animals are then starved and orally treated, 24 hours after the sensitization, with saline (=control animals) or a particular dose of the compound under investigation. The histamine injection (at a dose of 50 μg) was given s.p. in the right hind paw 2 hours after the oral pretreatment with the compound.

[3] = system: anaphylactic shock in guinea pigs sensitized to ovalbumin; test: Anaphylaxis in guinea pigs: protection against death (survival) after ovalbumin challenge; format: in vivo, guinea pig; conditions: Table I-b; estimated ED50, oral, protection against death after i.v. 0.6 mg ovalbumin
Method: The anti-anaphylactic and antihistaminic effects of the subject compounds (I) and salts thereof are studied "in vivo" in guinea pigs.
Guinea pigs, weighing between 400 and 500 g, are sensitized to ovalbumin by subplantar (s.p.) injection of 0.05 ml of antiserum in the left hind paw. The animals are then starved and orally treated, 24 hours after the sensitization, with saline (=control animals) or a particular dose of the compound under investigation.
The histamine injection (at a dose of 50 μg) was given s.p. in the right hind paw 2 hours after the oral pretreatment with the compound. The diameters of both hind paws are first measured before the histamine injection is given and again 10 minutes thereafter. The animals are challenged intravenously with 0.6 mg of ovalbumin 30 minutes after the histamine injection. All control animals develop tyical primary anaphylactic shock symptoms (coughing, difficult breathing, convulsions) and 85% of these control animals die within 15 minutes after the ovalbumin injection. Protection against death is used as the criterion for possible drug effects and the estimated ED50 -value, i.e. the oral dose whereby the protection is observed in 50% of the guinea pigs, is listed in the tables below.

1-[3-{4-[(3-chlorophenyl)phenylmethyl]-1-piperazinyl}propyl]-1H-benzimidazole trihydrochloride.hydrate.hemi-2-propanolate [I-b: M=H, R1=H, (CH2)4, R6=3-Cl, R7=H]
Histamine in "vitro" (ileum) effective conc. [1]: 0.01 mg/L
Anaphylaxis in guinea pigs oral effective dose in mg/kg: Histamine oedema [2]: 1.25 mg/kg
Anaphylaxis in guinea pigs oral effective dose in mg/kg: Survival [3]: 1.25 mg/kg

— patent US4377578A, “Piperazine derivatives” (priority 1981, dated 1983)
